Assay results: patent US8865623B2, “Herbicidally active cyclic diones and derivatives thereof, processes for their preparation, compositions, and method of controlling weeds” (Syngenta Limited, priority 2009, dated 2014)

How the values were obtained:
Type in all cases: in vivo
[1] = system: Alopecurus myosuroides (ALOMY); assay: Pre-emergence herbicidal activity, glasshouse pot test; details: Alopecurus myosuroides, 312 h; Rate 250 g/ha; pre-emergence spray; evaluated after 13 days; read-out: Pre-emergence activity ALOMY (100=total damage to plant; 0=no damage to plant)
How it was run: (§1)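 Potted plants sprayed one day after sowing (pre-emergence) or after 8 days (post-emergence) with formulation in acetone/water (50:50) containing 0.5% Tween 20. Glasshouse at 24/16 °C, 14 h light, 65% humidity; damage scored after 13 days (0 none, 100 total).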

Avena fatua (AVEFA) [2] = assay: as above; details: Avena fatua, 312 h; Rate 250 g/ha; pre-emergence spray; evaluated after 13 days; read-out: Pre-emergence activity AVEFA (100=total damage to plant; 0=no damage to plant)
How it was run: as §1

[3] = system: Echinochloa crus-galli (ECHCG); assay: as above; details: Echinochloa crus-galli, 312 h; Rate 250 g/ha; pre-emergence spray; evaluated after 13 days; read-out: Pre-emergence activity ECHCG (100=total damage to plant; 0=no damage to plant)
How it was run: as §1

Lolium perenne (LOLPE) [4] = assay: as above; details: Lolium perenne, 312 h; Rate 250 g/ha; pre-emergence spray; evaluated after 13 days; read-out: Pre-emergence activity LOLPE (100=total damage to plant; 0=no damage to plant)
How it was run: as §1

[5] = system: Alopecurus myosuroides (ALOMY); assay: Post-emergence herbicidal activity, glasshouse pot test; details: Alopecurus myosuroides, 312 h, rate 250 g/ha, evaluated after 13 days, glasshouse, read-out: Post-emergence activity ALOMY (100=total damage to plant; 0=no damage to plant)
How it was run: as §1

Avena fatua (AVEFA) [6] = assay: as above; details: Avena fatua, 312 h, rate 250 g/ha, evaluated after 13 days, glasshouse, read-out: Post-emergence activity AVEFA (100=total damage to plant; 0=no damage to plant)
How it was run: as §1

[7] = system: Echinochloa crus-galli (ECHCG); assay: as above; details: Echinochloa crus-galli, 312 h, rate 250 g/ha, evaluated after 13 days, glasshouse, read-out: Post-emergence activity ECHCG (100=total damage to plant; 0=no damage to plant)
How it was run: as §1

Lolium perenne (LOLPE) [8] = assay: as above; details: Lolium perenne, 312 h, rate 250 g/ha, evaluated after 13 days, glasshouse, read-out: Post-emergence activity LOLPE (100=total damage to plant; 0=no damage to plant)
How it was run: as §1

Structure (SMILES) | pest or weed control at 250 g/ha [1] [%] | pest or weed control at 250 g/ha (Avena fatua (AVEFA) [2]) [%] | pest or weed control at 250 g/ha [3] [%] | pest or weed control at 250 g/ha (Lolium perenne (LOLPE) [4]) [%] | pest or weed control at 250 g/ha [5] [%] | pest or weed control at 250 g/ha (Avena fatua (AVEFA) [6]) [%] | pest or weed control at 250 g/ha [7] [%] | pest or weed control at 250 g/ha (Lolium perenne (LOLPE) [8]) [%]
CCc1ccc(Oc2ccc3ccccc3c2)cc1C1=C(O)C(C)(C)OC(C)(C)C1=O [Example A-56] | 80 | 30 | 80 | 100 | 100 | 0 | 100 | 100
CCc1ccc(Oc2cccc(F)c2)cc1C1=C(O)C(C)(C)OC(C)(C)C1=O [Example A-58] | 0 | 0 | 70 | 0 | 0 | 0 | 80 | 0
CCc1ccc(Oc2nc(F)c(F)c(C)c2F)cc1C1=C(O)C(C)(C)OC(C)(C)C1=O [Example A-59] | 80 | 70 | 100 | 100 | 80 | 70 | 100 | 70
CCc1ccc(Oc2nc(F)c(Cl)c(Cl)c2Cl)cc1C1=C(O)C(C)(C)OC(C)(C)C1=O [Example A-60] | 0 | 0 | 50 | 40 | 0 | 0 | 0 | 0
CCc1ccc(Oc2ncc(C(F)(F)F)cc2F)cc1C1=C(O)C(C)(C)OC(C)(C)C1=O [Example A-62] | 100 | 100 | 100 | 100 | 100 | 100 | 100 | 100
CCc1ccc(Oc2cc(C)ccn2)cc1C1=C(O)C(C)(C)OC(C)(C)C1=O [Example A-64] | 60 | 0 | 20 | 80 | 40 | 0 | 30 | 40
CCc1ccc(Oc2ccc(Cl)cc2F)cc1C1=C(O)CC2(CCOCC2)CC1=O [Example A-65] | 70 | 90 | 100 | 80 | 90 | 90 | 100 | 80
CCc1ccc(Oc2ccc(Cl)c(F)c2)cc1C1=C(O)CC2(CCOCC2)CC1=O [Example A-66] | 100 | 90 | 100 | 80 | 100 | 100 | 100 | 80
CCc1ccc(Oc2ccc([N+](=O)[O-])c(Cl)c2)cc1C1=C(O)C(C)(C)OC(C)(C)C1=O [Example A-67] | 90 | 90 | 100 | 100 | 100 | 80 | 100 | 90
CCc1ccc(Oc2ccc(Cl)c(F)c2)cc1C1=C(O)CCCC1=O [Example A-68] | 30 | 30 | 100 | 70 | 60 | 40 | 100 | 60
CCc1ccc(Oc2ccc(F)cc2F)cc1C1=C(O)CCCC1=O [Example A-69] | 20 | 0 | 80 | 30 | 10 | 0 | 60 | 20
CCc1ccc(Oc2ccc(F)cc2Cl)cc1C1=C(O)CC(C)(C)CC1=O [Example A-70] | 60 | 10 | 100 | 50 | 30 | 10 | 70 | 10
CCc1ccc(Oc2ccc(Cl)cc2Cl)cc1C1=C(O)CC(C)(C)CC1=O [Example A-71] | 30 | 0 | 90 | 40 | 60 | 30 | 90 | 60
CCc1ccc(Oc2ccnc(Cl)c2)cc1C1=C(O)C(C)(C)OC(C)(C)C1=O [Example A-72] | 60 | 30 | 90 | 70 | 60 | 50 | 90 | 40
CCc1ccc(Oc2ccc(C#N)cc2Cl)cc1C1=C(O)C(C)(C)OC(C)(C)C1=O [Example A-73] | 90 | 80 | 100 | 80 | 90 | 40 | 100 | 70
CCc1ccc(Oc2ccc(C#N)cc2C(F)(F)F)cc1C1=C(O)C(C)(C)OC(C)(C)C1=O [Example A-74] | 60 | 90 | 100 | 100 | 90 | 80 | 100 | 80
CCc1ccc(Oc2ccc(C#N)c(Cl)c2)cc1C1=C(O)C(C)(C)OC(C)(C)C1=O [Example A-75] | 100 | 80 | 100 | 100 | 100 | 90 | 100 | 100
CCc1ccc(Oc2ccc(C#N)c(C(F)(F)F)c2)cc1C1=C(O)C(C)(C)OC(C)(C)C1=O [Example A-76] | 70 | 80 | 100 | 60 | 80 | 70 | 100 | 70
CCc1ccc(Oc2ccc(C#N)c(C#N)c2)cc1C1=C(O)C(C)(C)OC(C)(C)C1=O [Example A-77] | 40 | 20 | 70 | 30 | 60 | 30 | 70 | 30
CCc1ccc(Oc2ccc(C(F)(F)F)cc2Br)cc1C1=C(O)C(C)(C)OC(C)(C)C1=O [Example A-78] | 100 | 80 | 100 | 100 | 100 | 90 | 90 | 90
CCc1ccc(Oc2ccc(C#N)cc2)cc1C1=C(O)C(C)(C)OC(C)(C)C1=O [Example A-79] | 80 | 80 | 100 | 90 | 100 | 60 | 100 | 80
